Usually IC50 stands for the concentration that inhibits the measured activity by half.

This assay deals with T1, human GPR17 receptor (Homo sapiens, UniProt Q13304).
T1 construct: host or cells: HEK-293
Kind of assay: Calcium mobilization functional assay (Fluo-8, FLIPR TETRA) in HEK-293 hGPR17 (Gα-q assay). As to conditions: antagonism of MDL29,951 (~EC80) induced Ca2+ signal; cell line (HEK-293 hGPR17 or HEK-293 Suchi5 hGPR17) not given. The format is cell-based. As for the experimental part: HEK-293 cells stably expressing the human GPR17 receptor (HEK-293 hGPR17) developed by Axxam (Bresso, Milan, Italy) were cultured at 37° C. in a humidified atmosphere of 5% CO2. Cells were grown in EMEM supplemented with FBS (10%), Penicillin/Streptomycin (1%), Ultraglutamine I (2 mM), puromycin (0.6 μg/mL), G418 (0.4 mg/mL), zeocin (50 μg/mL). This cell line was used to test the compound antagonistic activity by monitoring the Gα-q based signaling. Signaling via Gα-q leads to mobilization of calcium from internal stores. Elevated intracellular calcium levels can then be measured with calcium-sensitive fluorescent dyes (e.g., Fluo 8-No Wash Dye).
GPR17 activation leads to both an increase in intracellular calcium (via Gα-q) and a decrease in cAMP levels (via Gα-i), implicating that both of these pathways play a role for in vivo function.
Experiments were performed using the below cell lines, as described in part 1: • HEK-293 hGPR17 (used to study the compounds acting via Gα-q pathway) • HEK-293 Suchi5 hGPR17 (used to study the compounds acting via Gα-i pathway, where the Gα-i signaling is switched to a Gα-q signaling thanks to the Gα-i/q chimera Suchi5)
GPR17 activation was able to induce an endoplasmic reticulum calcium (Ca^2+) store release in cytosol which could be measured using the fluorescent Ca^2+ sensitive dye Fluo-8 No Wash Dye as readout.
HEK-293 hGPR17 and HEK-293 Suchi5 hGPR17 were seeded at a density of 15,000 cells/well into poly-D-lysine coated black 384-well plates with clear bottom in complete medium. Cells were incubated overnight at 37° C. in a humidified atmosphere of 5% CO2. Twenty-four hours after seeding, the culture medium was carefully removed manually and the cells were loaded for 60 minutes at room temperature with the Ca^2+ sensitive Fluo-8 No Wash Dye, according to manufacturer's instructions. Cells were then assayed using a fluorometric imaging plate reader (FLIPR^TETRA). Fluorescence (excitation: 470-495 nm; emission: 515-575 nm) was recorded during the experiment. […] After twenty minutes, a second injection of MDL29,951 at ˜EC80 (500 nM for HEK-293 hGPR17 and 2 nM for HEK-293 Suchi5 hGPR17) in assay buffer was performed at the FLIPR^TETRA and the signal of the emitted fluorescence was recorded for additional 2 minutes. All the compound injections and incubations were performed in duplicate. For data quality and data analysis the Screener® 16.0.6 (Genedata) software was used.
(A change in cytosolic calcium serves as a functional read-out for many receptors and channels.)

T1 sequence (Q13304 whole entry): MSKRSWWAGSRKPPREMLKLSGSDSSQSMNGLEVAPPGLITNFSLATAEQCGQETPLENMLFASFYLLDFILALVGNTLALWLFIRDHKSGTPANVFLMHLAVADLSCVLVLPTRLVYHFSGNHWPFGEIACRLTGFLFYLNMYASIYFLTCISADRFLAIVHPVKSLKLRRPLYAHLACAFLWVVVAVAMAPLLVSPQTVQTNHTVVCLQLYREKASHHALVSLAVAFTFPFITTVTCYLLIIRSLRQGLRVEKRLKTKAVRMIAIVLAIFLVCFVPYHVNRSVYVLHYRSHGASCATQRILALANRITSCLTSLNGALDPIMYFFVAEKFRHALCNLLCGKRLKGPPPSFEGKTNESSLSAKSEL

On to `COc1ccc(NS(=O)(=O)c2c[nH]c(-c3ccccc3)c2)c(F)c1` [Cpd 032, N-(2-fluoro-4-methoxy-phenyl)-5-phenyl-1H-pyrrole-3-sulfonamide], for which the half-maximal inhibitory concentration (IC50) is 5000 to 50000 nM.

With `Cc1c(S(=O)(=O)Nc2ccc(C#N)cc2F)c[nH]c1-c1ccccc1` [Cpd 033, N-(4-cyano-2-fluoro-phenyl)-4-methyl-5-phenyl-1H-pyrrole-3-sulfonamide], the IC50 is less than 500 nM.

Regarding `N#Cc1ccc(NS(=O)(=O)c2c[nH]cc2Cc2ccccc2)c(F)c1` [Cpd 034, 4-benzyl-N-(4-cyano-2-fluorophenyl)-1H-pyrrole-3-sulfonamide], the IC50 was less than 500 nM.

Take `N#Cc1ccc(NS(=O)(=O)c2c[nH]c(-c3ccccc3)c2)cc1F` [Cpd 035, N-(4-cyano-3-fluoro-phenyl)-5-phenyl-1H-pyrrole-3-sulfonamide]: the IC50 was less than 500 nM.

Consider `N#Cc1ccc(NS(=O)(=O)c2c[nH]c(-c3ccccc3)c2)c(Cl)c1` [Cpd 036, N-(2-chloro-4-cyano-phenyl)-5-phenyl-1H-pyrrole-3-sulfonamide], for which the 50% inhibitory concentration (IC50) was in the range of 500 to 5000 nM.

With `N#Cc1ccc(NS(=O)(=O)c2c[nH]c(-c3ccccc3)c2)nc1` [Cpd 037, N-(5-cyano-2-pyridyl)-5-phenyl-1H-pyrrole-3-sulfonamide], the IC50 was 5000 to 50000 nM.

`N#Cc1ccc(NS(=O)(=O)c2c[nH]c(-c3ccc(F)cc3F)c2)c(F)c1` [Cpd 038, N-(4-cyano-2-fluoro-phenyl)-5-(2,4-difluorophenyl)-1H-pyrrole-3-sulfonamide]: the IC50 was less than 500 nM.

`N#Cc1ccc(NS(=O)(=O)c2c[nH]c(-c3cccc(Cl)c3F)c2)c(F)c1` [Cpd 039, 5-(3-chloro-2-fluoro-phenyl)-N-(4-cyano-2-fluoro-phenyl)-1H-pyrrole-3-sulfonamide]: the half-maximal inhibitory concentration (IC50) was less than 500 nM.

For `N#Cc1ccc(NS(=O)(=O)c2c[nH]c(-c3cccc(F)c3F)c2)c(F)c1` [Cpd 040, N-(4-cyano-2-fluoro-phenyl)-5-(2,3-difluorophenyl)-1H-pyrrole-3-sulfonamide], the IC50 was less than 500 nM.

On to `N#Cc1ccc(NS(=O)(=O)c2c[nH]c(-c3cc(F)ccc3F)c2)c(F)c1` [Cpd 041, N-(4-cyano-2-fluoro-phenyl)-5-(2,5-difluorophenyl)-1H-pyrrole-3-sulfonamide], for which the IC50 is less than 500 nM.

As to `Cc1cccc(-c2cc(S(=O)(=O)Nc3ccc(C#N)cc3F)c[nH]2)c1F` [Cpd 042, N-(4-cyano-2-fluoro-phenyl)-5-(2-fluoro-3-methyl-phenyl)-1H-pyrrole-3-sulfonamide], the half-maximal inhibitory concentration (IC50) is less than 500 nM.

Take `Cc1ccc(-c2cc(S(=O)(=O)Nc3ccc(C#N)cc3F)c[nH]2)c(F)c1` [Cpd 043, N-(4-cyano-2-fluoro-phenyl)-5-(2-fluoro-4-methyl-phenyl)-1H-pyrrole-3-sulfonamide]: the IC50 was in the range of 500 to 5000 nM.

Consider `Cc1ccc(F)c(-c2cc(S(=O)(=O)Nc3ccc(C#N)cc3F)c[nH]2)c1` [Cpd 044, N-(4-cyano-2-fluoro-phenyl)-5-(2-fluoro-5-methyl-phenyl)-1H-pyrrole-3-sulfonamide], for which the half-maximal inhibitory concentration (IC50) was less than 500 nM.

`N#Cc1ccc(NS(=O)(=O)c2c[nH]c(-c3ccc(Cl)cc3F)c2)c(F)c1` [Cpd 045, 5-(4-chloro-2-fluoro-phenyl)-N-(4-cyano-2-fluoro-phenyl)-1H-pyrrole-3-sulfonamide]: the half-inhibitory concentration (IC50) lay in the range of 500 to 5000 nM.

For `N#Cc1ccc(NS(=O)(=O)c2c[nH]c(-c3cc(Cl)ccc3F)c2)c(F)c1` [Cpd 046, 5-(5-chloro-2-fluoro-phenyl)-N-(4-cyano-2-fluoro-phenyl)-1H-pyrrole-3-sulfonamide], the IC50 was less than 500 nM.

As for `O=S(=O)(Nc1cc(F)c(F)cc1F)c1c[nH]c(-c2ccccc2F)c1` [Cpd 047, 5-(2-fluorophenyl)-N-(2,4,5-trifluorophenyl)-1H-pyrrole-3-sulfonamide], the IC50 is 500 to 5000 nM.

For the molecule `O=S(=O)(Nc1ncc(Cl)cc1F)c1c[nH]c(-c2ccccc2F)c1` [Cpd 048, N-(5-chloro-3-fluoro-2-pyridyl)-5-(2-fluorophenyl)-1H-pyrrole-3-sulfonamide], the IC50 was 500 to 5000 nM.

Regarding `O=S(=O)(Nc1cccc2c1OCO2)c1c[nH]c(-c2ccccc2F)c1` [Cpd 049, N-(1,3-benzodioxol-4-yl)-5-(2-fluorophenyl)-1H-pyrrole-3-sulfonamide], the IC50 is 500 to 5000 nM.

As for `O=S(=O)(Nc1cccc2nsnc12)c1c[nH]c(-c2ccccc2F)c1` [Cpd 050, N-(2,1,3-benzothiadiazol-4-yl)-5-(2-fluorophenyl)-1H-pyrrole-3-sulfonamide], the IC50 is less than 500 nM.

Consider `O=S(=O)(Nc1cc(F)ccc1F)c1c[nH]c(-c2ccccc2F)c1` [Cpd 051, N-(2,5-difluorophenyl)-5-(2-fluorophenyl)-1H-pyrrole-3-sulfonamide], for which the IC50 was 500 to 5000 nM.

`O=S(=O)(Nc1ccc(Cl)cc1F)c1c[nH]c(-c2ccccc2F)c1` [Cpd 052, N-(4-chloro-2-fluoro-phenyl)-5-(2-fluorophenyl)-1H-pyrrole-3-sulfonamide]: the half-maximal inhibitory concentration (IC50) fell in the range of 500 to 5000 nM.

Regarding `N#CCc1ccc(NS(=O)(=O)c2c[nH]c(-c3ccccc3F)c2)c(F)c1` [Cpd 053, N-[4-(cyanomethyl)-2-fluoro-phenyl]-5-(2-fluorophenyl)-1H-pyrrole-3-sulfonamide], the 50% inhibitory concentration (IC50) is 500 to 5000 nM.

Regarding `O=S(=O)(Nc1ccc(F)cc1F)c1c[nH]c(-c2ccccc2F)c1` [Cpd 054, N-(2,4-difluorophenyl)-5-(2-fluorophenyl)-1H-pyrrole-3-sulfonamide], the 50% inhibitory concentration (IC50) lay within 5000 to 50000 nM.

For the molecule `O=S(=O)(Nc1ccc(C(F)(F)F)cc1F)c1c[nH]c(-c2ccccc2F)c1` [Cpd 055, 5-(2-fluorophenyl)-N-[2-fluoro-4-(trifluoromethyl)phenyl]-1H-pyrrole-3-sulfonamide], the IC50 lay within 500 to 5000 nM.

On to `O=S(=O)(Nc1cccc(F)c1F)c1c[nH]c(-c2ccccc2F)c1` [Cpd 056, N-(2,3-difluorophenyl)-5-(2-fluorophenyl)-1H-pyrrole-3-sulfonamide], for which the IC50 fell in the range of 5000 to 50000 nM.

In the case of `Cc1ccc(NS(=O)(=O)c2c[nH]c(-c3ccccc3F)c2)c(F)c1` [Cpd 057, N-(2-fluoro-4-methyl-phenyl)-5-(2-fluorophenyl)-1H-pyrrole-3-sulfonamide], the IC50 is 500 to 5000 nM.

Turning to `N#Cc1ccc(NS(=O)(=O)c2c[nH]c(-c3ccccc3F)c2)cc1Cl` [Cpd 058, N-(3-chloro-4-cyano-phenyl)-5-(2-fluorophenyl)-1H-pyrrole-3-sulfonamide], the IC50 fell in the range of 500 to 5000 nM.

As for `COc1cc(NS(=O)(=O)c2c[nH]c(-c3ccccc3F)c2)ccc1C#N` [Cpd 059, N-(4-cyano-3-methoxy-phenyl)-5-(2-fluorophenyl)-1H-pyrrole-3-sulfonamide], the half-inhibitory concentration (IC50) is 500 to 5000 nM.

Turning to `COc1cc(C(F)(F)F)cnc1NS(=O)(=O)c1c[nH]c(-c2ccccc2F)c1` [Cpd 060, 5-(2-fluorophenyl)-N-[3-methoxy-5-(trifluoromethyl)pyridin-2-yl]-1H-pyrrole-3-sulfonamide], the half-maximal inhibitory concentration (IC50) fell in the range of 500 to 5000 nM.

Turning to `COc1cc(CC#N)cnc1NS(=O)(=O)c1c[nH]c(-c2ccccc2)c1` [Cpd 061, N-[5-(cyanomethyl)-3-methoxypyridin-2-yl]-5-phenyl-1H-pyrrole-3-sulfonamide], the concentration for half-maximal inhibition (IC50) was less than 500 nM.

`COc1cc(Br)cnc1NS(=O)(=O)c1c[nH]c(-c2ccccc2)c1` [Cpd 062, N-(5-bromo-3-methoxypyridin-2-yl)-5-phenyl-1H-pyrrole-3-sulfonamide]: the IC50 lay in the range of 500 to 5000 nM.

On to `COc1cc(C#N)c(F)cc1NS(=O)(=O)c1c[nH]c(-c2ccccc2)c1` [Cpd 063, N-(4-cyano-5-fluoro-2-methoxyphenyl)-5-phenyl-1H-pyrrole-3-sulfonamide], for which the half-maximal inhibitory concentration (IC50) is less than 500 nM.

With `N#Cc1cc(F)c(NS(=O)(=O)c2c[nH]c(-c3ccccc3)c2)c(F)c1` [Cpd 064, N-(4-cyano-2,6-difluoro-phenyl)-5-phenyl-1H-pyrrole-3-sulfonamide], the IC50 lay within 500 to 5000 nM.

As to `N#CCOc1cc(F)c(NS(=O)(=O)c2c[nH]c(-c3ccccc3)c2)cc1F` [Cpd 065, N-[4-(cyanomethoxy)-2,5-difluoro-phenyl]-5-phenyl-1H-pyrrole-3-sulfonamide], the IC50 is less than 500 nM.

In the case of `N#Cc1ccc(NS(=O)(=O)c2c[nH]c(-c3ccncc3F)c2)c(F)c1` [Cpd 066, N-(4-cyano-2-fluoro-phenyl)-5-(3-fluoro-4-pyridyl)-1H-pyrrole-3-sulfonamide], the 50% inhibitory concentration (IC50) lay within 500 to 5000 nM.

The record behind these values is US20240299385A1 (ReWind Therapeutics NV, priority 2021, published 2024).
